Test results from PubChem BioAssay AID192 (DTP/NCI, 2004).
Where “and” joins values, the source holds several entries; their conditions need not be identical. Identical values can stand only once. Toxic doses and inconclusive results are not listed.

Test system: BDF1 mice, B16 melanoma ip, median survival T/C
Assay: NCI In Vivo Anticancer Drug Screen. Data for tumor model B16 Melanoma (intraperitoneal) in B6D2F1 (BDF1) mice
Conditions: endpoint: median survival time, higher = longer survival
Method in brief: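 Values are ratios of treated (T) to vehicle-control (C) measurements of survival or tumor size in tumor-bearing mice.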

[1] = dose: 25.0 mg/kg/injection, schedule: Q01DX009 (ip), vehicle: saline with Tween-80
[2] = dose: 50.0 mg/kg/injection, schedule: Q01DX009 (ip), vehicle: saline with Tween-80
[3] = dose: 100.0 mg/kg/injection, schedule: Q01DX009 (ip), vehicle: saline with Tween-80
[4] = dose: 100.0 mg/kg/injection, schedule: Q01DX009 (ip), vehicle: Klucel (hydroxypropylcellulose) (HPC)
[5] = dose: 200.0 mg/kg/injection, schedule: Q01DX009 (ip), vehicle: Klucel (hydroxypropylcellulose) (HPC)
[6] = dose: 400.0 mg/kg/injection, schedule: Q01DX009 (ip), vehicle: Klucel (hydroxypropylcellulose) (HPC)
[7] = dose: 100.0 mg/kg/injection, schedule: Q01DX009 (ip), vehicle: saline
[8] = dose: 50.0 mg/kg/injection, schedule: Q01DX009 (ip), vehicle: saline
[9] = dose: 10.0 mg/kg/injection, schedule: Q01DX009 (ip), vehicle: saline
[10] = dose: 20.0 mg/kg/injection, schedule: Q01DX009 (ip), vehicle: saline
[11] = dose: 40.0 mg/kg/injection, schedule: Q01DX009 (ip), vehicle: saline
[12] = dose: 200.0 mg/kg/injection, schedule: Q01DX009 (ip), vehicle: saline
[13] = dose: 25.0 mg/kg/injection, schedule: Q01DX009 (ip), vehicle: Klucel (hydroxypropylcellulose) (HPC)
[14] = dose: 12.5 mg/kg/injection, schedule: Q01DX009 (ip), vehicle: saline with Tween-80
[15] = dose: 200.0 mg/kg/injection, schedule: Q01DX009 (ip), vehicle: saline with Tween-80
[16] = dose: 400.0 mg/kg/injection, schedule: Q01DX009 (ip), vehicle: saline with Tween-80

## COc1ccc(OC)c(C2N(Cc3ccc(N(C)C)cc3)CCCN2Cc2ccc(N(C)C)cc2)c1
[1]
  T/C: 104 % of control
[2]
  T/C: 97 % of control
[3]
  T/C: 100 % of control

## CCOc1ccccc1NC(=O)Nc1ccc(Cl)cc1
[4]
  T/C: 110 % of control
[5]
  T/C: 103 % of control
[6]
  T/C: 100 % of control

## COc1cc2c(c(OC)c1OC)-c1ccc(SC)c(=O)cc1[C@@H](NC1OC(CO)C(O)C(O)C1O)CC2 (stereo not given in full)
[7]
  T/C: 120 % of control

## COC1CC(C)C(OC)c2cc(O)cc(c2O)NC(=O)/C(C)=C/C=C\C(C)C(OC(N)=O)/C(C)=C\C(C)C1OC (stereo not given)
dose: 2.5 mg/kg/injection, schedule: Q01DX009 (ip), vehicle: Klucel (hydroxypropylcellulose) (HPC)
  T/C: 176 % of control and 187 % of control
dose: 5.0 mg/kg/injection, schedule: Q01DX009 (ip), vehicle: Klucel (hydroxypropylcellulose) (HPC)
  T/C: 177 % of control and 208 % of control
dose: 5.0 mg/kg/injection, schedule: Q01DX009 (ip), vehicle: saline + alcohol
  T/C: 242 % of control

## CNCC(C)(C)c1ccccc1
dose: 6.25 mg/kg/injection, schedule: Q01DX009 (ip), vehicle: saline
  T/C: 102 % of control
dose: 12.5 mg/kg/injection, schedule: Q01DX009 (ip), vehicle: saline
  T/C: 90 % of control
dose: 25.0 mg/kg/injection, schedule: Q01DX009 (ip), vehicle: saline
  T/C: 102 % of control
[8]
  T/C: 100 % of control

## c1cc2cc3c(cc2cc1CC1=NCCc2cc4c(cc21)OCO4)OCO3
dose: 150.0 mg/kg/injection, schedule: Q01DX009 (ip), vehicle: other
  T/C: 102 % of control

## COc1cc2c(Cc3ccc(OC)c(OC)c3)[n+](Cc3ccccc3)ccc2cc1NCc1ccccc1
dose: 0.78 mg/kg/injection, schedule: Q01DX009 (ip), vehicle: saline with Tween-80
  T/C: 105 % of control
dose: 1.56 mg/kg/injection, schedule: Q01DX009 (ip), vehicle: saline with Tween-80
  T/C: 106 % of control
dose: 3.12 mg/kg/injection, schedule: Q01DX009 (ip), vehicle: saline with Tween-80
  T/C: 110 % of control
dose: 6.25 mg/kg/injection, schedule: Q01DX009 (ip), vehicle: saline with Tween-80
  T/C: 110 % of control

## CCOC(=O)N1CCN(CCCCCOc2ccccc2C2CCCCC2)CC1
[2]
  T/C: 103 % of control

## CC(C)NCC(=O)c1ccc(O)c(O)c1
dose: 5.0 mg/kg/injection, schedule: Q01DX009 (ip), vehicle: saline
  T/C: 115 % of control
[9]
  T/C: 114 % of control
[10]
  T/C: 116 % of control
[11]
  T/C: 110 % of control
[7]
  T/C: 113 % of control
dose: 100.0 mg/kg/injection, schedule: Q04DX003 (ip), vehicle: saline
  T/C: 108 % of control
[12]
  T/C: 106 % of control
dose: 200.0 mg/kg/injection, schedule: Q04DX003 (ip), vehicle: saline
  T/C: 106 % of control
dose: 400.0 mg/kg/injection, schedule: Q04DX003 (ip), vehicle: saline
  T/C: 97 % of control

## CNC(=O)Nc1cccc(C(F)(F)F)c1
[13]
  T/C: 99 % of control
dose: 50.0 mg/kg/injection, schedule: Q01DX009 (ip), vehicle: Klucel (hydroxypropylcellulose) (HPC)
  T/C: 100 % of control
[4]
  T/C: 90 % of control and 112 % of control

## O=CC=O
[14]
  T/C: 104 % of control
[1]
  T/C: 106 % of control
[2]
  T/C: 108 % of control
[3]
  T/C: 123 % of control

## CCc1cc(C)cc(OC(=O)Nc2ccccc2)c1
[3]
  T/C: 97 % of control
[15]
  T/C: 93 % of control
[16]
  T/C: 100 % of control

## Nc1ccnc(=O)[nH]1
dose: 32.0 mg/kg/injection, schedule: Q01DX009 (ip), vehicle: Klucel (hydroxypropylcellulose) (HPC)
  T/C: 98 % of control and 102 % of control
dose: 32.0 mg/kg/injection, schedule: Q01DX009 (ip), vehicle: saline with Tween-80
  T/C: 113 % of control
dose: 32.0 mg/kg/injection, schedule: Q01DX009 (ip), vehicle: saline
  T/C: 104 % of control
dose: 64.0 mg/kg/injection, schedule: Q01DX009 (ip), vehicle: Klucel (hydroxypropylcellulose) (HPC)
  T/C: 101 % of control and 106 % of control
dose: 64.0 mg/kg/injection, schedule: Q01DX009 (ip), vehicle: saline with Tween-80
  T/C: 97 % of control
dose: 64.0 mg/kg/injection, schedule: Q01DX009 (ip), vehicle: saline
  T/C: 110 % of control
dose: 128.0 mg/kg/injection, schedule: Q01DX009 (ip), vehicle: Klucel (hydroxypropylcellulose) (HPC)
  T/C: 103 % of control and 113 % of control
dose: 128.0 mg/kg/injection, schedule: Q01DX009 (ip), vehicle: saline with Tween-80
  T/C: 103 % of control
dose: 128.0 mg/kg/injection, schedule: Q01DX009 (ip), vehicle: saline
  T/C: 119 % of control
dose: 256.0 mg/kg/injection, schedule: Q01DX009 (ip), vehicle: Klucel (hydroxypropylcellulose) (HPC)
  T/C: 94 % of control and 103 % of control
dose: 256.0 mg/kg/injection, schedule: Q01DX009 (ip), vehicle: saline
  T/C: 105 % of control
dose: 512.0 mg/kg/injection, schedule: Q01DX009 (ip), vehicle: Klucel (hydroxypropylcellulose) (HPC)
  T/C: 100 % of control and 102 % of control
dose: 512.0 mg/kg/injection, schedule: Q01DX009 (ip), vehicle: saline with Tween-80
  T/C: 111 % of control
dose: 512.0 mg/kg/injection, schedule: Q01DX009 (ip), vehicle: saline
  T/C: 110 % of control

## CC(=O)C(C)C(C)=O
[3]
  T/C: 88 % of control
[15]
  T/C: 90 % of control
[16]
  T/C: 91 % of control

## Cc1ccc(C(=N)c2ccccc2Cc2cccc3ccccc23)c(C)c1
[2]
  T/C: 88 % of control

## COc1ccc(Cl)cc1NC(=O)CC(C)=O
[4]
  T/C: 100 % of control
[5]
  T/C: 93 % of control
[6]
  T/C: 96 % of control

## CC(O)c1cccnc1 (stereo not given)
[9]
  T/C: 122 % of control
[10]
  T/C: 116 % of control
[11]
  T/C: 122 % of control

## COC(=O)C(Cl)(Cl)N=Nc1c(Cl)cc(Cl)c(C)c1Cl
[14]
  T/C: 112 % of control
[1]
  T/C: 106 % of control
[2]
  T/C: 111 % of control
[3]
  T/C: 99 % of control
[15]
  T/C: 97 % of control

## O=C(CCl)N1c2ccccc2Oc2cc3ccccc3cc21
[8]
  T/C: 113 % of control
[7]
  T/C: 106 % of control
[12]
  T/C: 104 % of control
dose: 400.0 mg/kg/injection, schedule: Q01DX009 (ip), vehicle: saline
  T/C: 109 % of control

## COc1cc(C(=O)O)c2c(c1C)OC(=O)c1c(C)cc(O)c(C=O)c1O2
dose: 1.39 mg/kg/injection, schedule: Q01DX009 (ip), vehicle: saline with Tween-80
  T/C: 97 % of control
dose: 2.78 mg/kg/injection, schedule: Q01DX009 (ip), vehicle: saline with Tween-80
  T/C: 99 % of control
dose: 5.56 mg/kg/injection, schedule: Q01DX009 (ip), vehicle: saline with Tween-80
  T/C: 110 % of control
dose: 6.25 mg/kg/injection, schedule: Q01DX009 (ip), vehicle: Klucel (hydroxypropylcellulose) (HPC)
  T/C: 111 % of control
dose: 11.0 mg/kg/injection, schedule: Q01DX009 (ip), vehicle: saline with Tween-80
  T/C: 158 % of control
dose: 12.5 mg/kg/injection, schedule: Q01DX009 (ip), vehicle: Klucel (hydroxypropylcellulose) (HPC)
  T/C: 117 % of control
[14]
  T/C: 150 % of control
[13]
  T/C: 122 % of control
[1]
  T/C: 160 % of control
dose: 25.0 mg/kg/injection, schedule: Q04DX003 (ip), vehicle: saline with Tween-80
  T/C: 113 % of control
dose: 50.0 mg/kg/injection, schedule: Q04DX003 (ip), vehicle: saline with Tween-80
  T/C: 105 % of control

## C1OC1CN1CCN(CC2CO2)CC1 (stereo not given)
dose: 8.0 mg/kg/injection, schedule: Q01DX009 (ip), vehicle: saline with Tween-80
  T/C: 121 % of control
dose: 16.0 mg/kg/injection, schedule: Q01DX009 (ip), vehicle: saline with Tween-80
  T/C: 119 % of control

## O=C(O)CC(=O)O.[NH-]CC[NH-].[Pt+2]
dose: 3.12 mg/kg/injection, schedule: Q01DX009 (ip), vehicle: dextrose
  T/C: 119 % of control
dose: 12.5 mg/kg/injection, schedule: Q01DX009 (ip), vehicle: dextrose
  T/C: 171 % of control
[13]
  T/C: 197 % of control and 214 % of control

## Cc1ccc2c(c1)P(=O)(O)c1cc(Cl)ccc1O2
dose: 86.4 mg/kg/injection, schedule: Q01DX009 (ip), vehicle: water
  T/C: 100 % of control
dose: 144.0 mg/kg/injection, schedule: Q01DX009 (ip), vehicle: water
  T/C: 94 % of control
dose: 240.0 mg/kg/injection, schedule: Q01DX009 (ip), vehicle: water
  T/C: 101 % of control
dose: 259.0 mg/kg/injection, schedule: Q04DX003 (ip), vehicle: water
  T/C: 123 % of control
dose: 400.0 mg/kg/injection, schedule: Q01DX009 (ip), vehicle: water
  T/C: 98 % of control
dose: 432.0 mg/kg/injection, schedule: Q04DX003 (ip), vehicle: water
  T/C: 88 % of control

## Cc1ccc(N=Nc2c(O)ccc3n[nH]nc23)cc1
[4]
  T/C: 96 % of control
